According to ChEMBL document CHEMBL1136898, “Conformational analysis of N,N-disubstituted-1,4-diazepane orexin receptor antagonists and implications for receptor binding” (Bioorg Med Chem Lett, 2009):

How the values were obtained:
[1] = target: T1, Orexin/Hypocretin receptor type 1 (Homo sapiens, UniProt O43613); experiment: Binding affinity to OX1 receptor
T1 sequence (O43613 whole entry): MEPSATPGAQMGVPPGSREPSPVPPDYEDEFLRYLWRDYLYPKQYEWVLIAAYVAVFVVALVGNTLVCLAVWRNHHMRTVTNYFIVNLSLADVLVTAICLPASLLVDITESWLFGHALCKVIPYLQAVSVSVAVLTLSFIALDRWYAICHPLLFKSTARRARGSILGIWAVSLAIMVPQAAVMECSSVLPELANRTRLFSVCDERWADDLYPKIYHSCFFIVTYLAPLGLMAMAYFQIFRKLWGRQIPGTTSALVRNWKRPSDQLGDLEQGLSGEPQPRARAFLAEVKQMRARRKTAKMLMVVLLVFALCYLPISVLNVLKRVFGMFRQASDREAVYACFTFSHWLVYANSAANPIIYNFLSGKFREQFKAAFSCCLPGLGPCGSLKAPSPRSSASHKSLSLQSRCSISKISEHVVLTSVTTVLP

[2] = target: T2, Orexin receptor type 2 (Homo sapiens, UniProt O43614); experiment: Binding affinity to OX2 receptor
T2 sequence (O43614 whole entry): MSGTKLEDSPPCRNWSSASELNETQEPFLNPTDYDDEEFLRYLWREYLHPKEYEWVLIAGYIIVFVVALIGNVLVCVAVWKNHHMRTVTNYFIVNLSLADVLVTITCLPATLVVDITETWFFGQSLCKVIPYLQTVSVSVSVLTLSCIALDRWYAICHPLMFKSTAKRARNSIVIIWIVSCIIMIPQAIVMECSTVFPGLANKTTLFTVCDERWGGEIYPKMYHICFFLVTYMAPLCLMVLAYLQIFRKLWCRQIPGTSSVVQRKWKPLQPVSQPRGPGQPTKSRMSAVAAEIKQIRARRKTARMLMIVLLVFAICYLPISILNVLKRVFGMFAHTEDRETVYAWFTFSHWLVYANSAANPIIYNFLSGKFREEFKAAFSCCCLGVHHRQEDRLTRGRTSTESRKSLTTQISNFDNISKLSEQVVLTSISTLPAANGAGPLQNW

| Compound | Ki [1] [nM] | Ki [2] [nM] |
| --- | --- | --- |
| Cc1ccc(-n2nccn2)c(CN2CCCN(c3ncc4ccccc4n3)CC2)c1 | 930 | 240 |
| Cc1ccc(-n2nccn2)c(C(=O)N2CCCN(c3ccc4ccccc4c3)CC2)c1 | 2 | 2 |
| O=C(C1CCCCC1)N1CCCN(c2ncc3ccccc3n2)CC1 | 9800 | 550 |
| O=C1c2cc(ccc2-n2nccn2)CCCCCCc2ccc3cc(ccc3c2)N2CCCN1CC2 | 51 | 42 |
